Assays:
LDL receptor [1] = molecular target: T1, LDL receptor (Homo sapiens, UniProt P01130); experiment: fibroblast 125I-LDL degradation; assay type: cell-based; set-up: transferred to DMEM medium with 10% lipoprotein-depleted serum (LPDS) for 48 hr to upregulate the LDL receptors; endogenous in cells; host or cells: normal fibroblasts; settings: low concentrations of the tandem peptide
Experimental: A trimer of the p141-155 peptide, p(141-155)3, was synthesized as in Example 1 and its activity compared with p(141-155) (monomeric) and with p(141-155)2 (dimeric) peptide. Normal fibroblasts were plated in wells of a 96-well culture plate and grown for 96 hr in DMEM medium with 10% FBS. The cells were transferred to DMEM medium with 10% LPDS for 48 hr to up regulate the LDL receptors. The LDL degradation assay was performed according to Example 9 with 2 μg/ml of ^125 I-LDL (300-500 cpm/ng) in 0.2 ml/well in DMEM medium with 10% LPDS and incubated for 5 hr at 37° C. The supernatants removed from the wells were extracted with 10% TCA. The TCA soluble counts were normalized to protein content per well as measured by the Bio-Rad protein assay.

LDL receptor [2] = molecular target: T1, LDL receptor; experiment: 125I-LDL degradation by unstimulated THP-1 cells; assay type: cell-based; set-up: In the undifferentiated state THP-1 cells express LDL receptors that are regulated by the lipoprotein content of the culture medium; host or cells: THP-1 cells (unstimulated)
Source text: THP-1 cells were acquired from American Type Culture Collection and cultured in serum-free RPMI-1640 medium supplemented with 1% Nutridoma-HU for 48 hr to upregulate the LDL receptors. LDL was isolated by ultracentrifugation and radiolabeled using the iodine monochloride method as described in Example 8 to a specific activity 200-300 cpm/ng. Greater than 99% of the ^125 I-LDL ligand was precipitable by 10% TCA. The peptides indicated in FIGS. 1A and 1B were synthesized, as described in Example 1, purified to >95% by high pressure liquid chromatography and the amino acid composition verified. All peptides were solubilized in PBS. "AI 74-105"is a control peptide derived from residues 74-105 of apolipoprotein AI, "Monomer" is p(141-155), "Tandem Peptide" is p(141-155)2, "LDL" is unlabelled LDL, and "aLDL" is acetylated LDL.
Binding and degradation of LDL was evaluated as the disappearance of acid soluble ^125 I-LDL radioactivity from the incubation over a 5-hour incubation at 37C. Various concentrations of unlabeled LDL or tandem apo E peptide were coincubated with the ^125 I-LDL to determine their effects on binding and degradation.
For assay, 5×10^5 THP-1 cells in 0.5ml DMEM were co-incubated in a 1.5ml microfuge tube with 2-5 μg/ml of ^125 I-LDL at 37° C. in the presence of various concentrations of competitors indicated in FIGS. 1A and 1B. After 5 hr the cells were pelleted at 5000 x g, the supernatants were removed and the supernatants were extracted with 10% TCA and counted to form a TCA soluble cpm. The results were expressed as B/Bo where B equals the total TCA soluble cpm in supernatant collected in the presence of LDL or peptide and Bo equals the total TCA soluble cpm in supernatant of phosphate buffered saline (PBS) treated control cells. Each point is the average of 4 replicates with standard error of the mean (SEM),10%.

scavenger receptor = experiment: 125I-aLDL degradation by PMA-stimulated THP-1 cells; assay type: cell-based, human
Experimental: To verify that the inhibition of LDL degradation was specific for the LDL receptor, the effect of the tandem peptide on scavenger receptor processing of acetylated LDL (aLDL) was tested.
THP-1 cells (5×10^5 in 1.0ml of DMEM medium per 16 mm culture dish) were stimulated with PMA (10^-7 M) for 4 days. LDL was acetylated (Hara, H. et al., Biochem. Biophys. Res. Comm., 146(2):802-808, 1987) and then radio-labeled as described in Example 8 to a specific activity of 300-500 cpm/ng resulting in ^125 I-aLDL that was greater than 99% precipitable by 10% TCA. The cells were washed with PBS and the assay performed in DMEM medium supplemented with 1% Nutridoma-HU plus 25 μg/ml of ^125 I-aLDL. After 5 hr at 37° C., the supernatants were removed from the wells and extracted with 10% TCA. The B/B0 ratios were analyzed as described above. The results are depicted in FIG. 1B.

[3] = tested on: Human peripheral blood mononuclear (PBM) cells; experiment: PHA-stimulated lymphocyte proliferation (3H-thymidine uptake); assay type: cell-based; settings: Example 17
Source text: A lymphocyte cell culture system was used to examine the ability of various polypeptides and conjugates to mimic the ability of Apo E to inhibit lymphocyte differentiation as evidence by proliferation.
Human peripheral blood mononuclear (PBM) cells are isolated from whole blood on a Ficoll-Hypaque gradient. The collected PBMs are washed three times with fresh medium (RPMI-1640 plus 5% fetal bovine serum, glutamine, penicillin, streptomycin and HEPES buffer). After washing, the cells are counted and set at a density of 1×10^5 /ml. For culture, 0.2 ml of the cells are plated per well of a 96-well microtiter plate. The peptide or conjugate is added to the wells in a 50 ul volume that can be either filter or UV sterilized. The typical timing for this experiment is to expose the cells to the Apo E polypeptide or self-conjugate over night. PHA, the mitogen that stimulates lymphocyte growth and proliferation, is added the next day. Forty-eight hours after the addition of PHA, 1 uCi of ^3 H-thymidine is added per well in a 1 ul volume and 18-24 hours later the cells are harvested on a mash. The mash cell harvester functions to collect the cells on filter paper where they are washed with buffer to remove free ^3 H-thymidine. The filter papers are dried, put into scintillation vials with scintillation cocktail and the B emissions obtained. Each data point collected represents the average thymidine uptake in four wells, and the standard error was less than 10% for all data points.
Various concentrations of various Apo E peptide were added to cultures that contained 8×10^5 peripheral blood mononuclear cells per ml. The cells were cultured at 37C and RPMI with 5% serum. All cells were exposed to PHA at 24 hours, labeled with 3H-thymidine at 72 hours and harvested at 90 hours. The counts per minute (cpm) of 3H-thymidine in the harvested cells was measured, and the data are expressed as the mean of four wells per treatment as a measure of thymidine uptake (x 1000 cpm). The standard deviation was less than 10% for all means.

T1 sequence (P01130 22-860): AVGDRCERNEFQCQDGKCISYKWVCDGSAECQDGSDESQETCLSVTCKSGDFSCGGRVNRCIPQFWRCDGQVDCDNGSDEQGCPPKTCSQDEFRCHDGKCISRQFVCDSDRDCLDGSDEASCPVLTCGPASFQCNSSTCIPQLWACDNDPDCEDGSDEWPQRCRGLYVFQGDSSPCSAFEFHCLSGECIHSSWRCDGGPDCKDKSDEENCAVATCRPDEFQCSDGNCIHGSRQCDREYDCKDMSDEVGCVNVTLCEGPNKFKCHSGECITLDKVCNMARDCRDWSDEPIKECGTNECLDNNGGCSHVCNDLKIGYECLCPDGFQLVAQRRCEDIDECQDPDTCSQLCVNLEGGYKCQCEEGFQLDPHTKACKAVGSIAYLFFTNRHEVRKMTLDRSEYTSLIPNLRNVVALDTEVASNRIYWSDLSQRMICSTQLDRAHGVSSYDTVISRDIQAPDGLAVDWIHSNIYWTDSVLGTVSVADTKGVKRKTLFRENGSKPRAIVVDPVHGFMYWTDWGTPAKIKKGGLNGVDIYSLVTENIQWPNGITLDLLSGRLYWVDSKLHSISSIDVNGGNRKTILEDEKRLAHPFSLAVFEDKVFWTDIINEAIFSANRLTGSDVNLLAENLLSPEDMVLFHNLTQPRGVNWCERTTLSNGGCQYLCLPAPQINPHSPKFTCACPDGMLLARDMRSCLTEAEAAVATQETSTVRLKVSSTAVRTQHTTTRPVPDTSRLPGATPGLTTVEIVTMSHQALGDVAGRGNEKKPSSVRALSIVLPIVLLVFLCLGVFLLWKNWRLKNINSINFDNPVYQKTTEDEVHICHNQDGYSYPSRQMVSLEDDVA

effect on LDL degradation by fibroblasts (LDL receptor [1]): significant enhancement | molar excess compared with LDL required to achieve 50% inhibition of degradation (LDL receptor [2]): ~200 fold | inhibition at 12.5 µM (LDL receptor [2]; THP-1, 12.5 uM): 80% | effect on LDL degradation by THP-1 cells (LDL receptor [2]; low concentrations of the tandem peptide): significant enhancement | IC50 (LDL receptor [2]; read-out: concentration inhibiting 125I-LDL degradation by 50%): 5 µM
Compound: CC(C)C[C@H](NC(=O)[C@H](CC(=O)O)NC(=O)[C@H](CC(=O)O)NC(=O)[C@H](C)NC(=O)[C@H](CC(=O)O)NC(=O)[C@H](CCCNC(=N)N)NC(=O)[C@H](CC(C)C)NC(=O)[C@H](CC(C)C)NC(=O)[C@H](CCCNC(=N)N)NC(=O)[C@H](CCCCN)NC(=O)[C@H](CCCNC(=N)N)NC(=O)[C@H](CC(C)C)NC(=O)[C@H](CCCCN)NC(=O)[C@H](CCCNC(=N)N)NC(=O)[C@H](CC(C)C)NC(=O)[C@H](CC(C)C)NC(=O)[C@H](CC(=O)O)NC(=O)[C@H](CC(=O)O)NC(=O)[C@H](C)NC(=O)[C@H](CC(=O)O)NC(=O)[C@H](CCCNC(=N)N)NC(=O)[C@H](CC(C)C)NC(=O)[C@H](CC(C)C)NC(=O)[C@H](CCCNC(=N)N)NC(=O)[C@H](CCCCN)NC(=O)[C@H](CCCNC(=N)N)NC(=O)[C@H](CC(C)C)NC(=O)[C@H](CCCCN)NC(=O)[C@H](CCCNC(=N)N)NC(=O)[C@@H](N)CC(C)C)C(=O)O [p(141-155)2]
effect on 125I-aLDL degradation (scavenger receptor; listed as tandem apo E peptide): no effect | effect on 125I-aLDL degradation (scavenger receptor; listed as tandem peptide): Neither LDL or tandem peptide inhibited | ED50 or dose of peptide required to inhibit lymphocyte proliferation 50% [3]: 20 µM

— patent US5473039A, “Polypeptide analogs of apolipoprotein E, diagnostic systems and methods using the analogs” (The Scripps Research Institute, priority 1991, dated 1995)
